Test results as given in patent US12186433B2, “Nanocapsules comprising modified nucleobases and/or nucleosides, hydrogels and oleogels comprising them and uses thereof” (UNIVERSITE D'ANGERS, priority 2017, dated 2025).

Assays:
[1] = system: THP-1 cells; test: Cellular toxicity, MTS assay, THP-1 cells; assay type: cell-based, human; conditions: THP1 cell line, Cyt-C16 2.5% (w/wLabrafac) at the LNC surface
Procedure: THP-1 cells (human monocyte/macrophage cell line obtained from ATCC, Manassas, VA, USA) were grown in suspension at 37° C., 90% humidity, 5% CO2 in RPMI 1640 medium, completed with decomplemented FBS (10% v/v), penicillin (100 UI·mL^−1), streptomycin ([…]), amphotericin B ([…]), HEPES 10 mM (1% v/v), Pyruvate Sodium 100 mM (1% v/v) and β-mercaptoethanol 20 μM (1% v/v). Cell differentiation was induced in the same medium by adding PMA 200 nM. A 48-h incubation allows the cells to adhere (15·10^3 cells/well in a 96-well cell culture dish). After medium aspiration to eliminate non-adhered cells, cells were washed again with fresh medium.
B6-KPC3 cells (pancreas tumor from transgenic KPC mice) (gift from the Department of Oncology and Surgical Sciences of Padova, Pr. Vincenzo Bronte), were grown in suspension at 37° C., 90% humidity, 5% CO2 in DMEM medium, completed with decomplemented FBS (10% v/v), penicillin (100 UI·mL^−1), streptomycin ([…]), amphotericin B ([…]), HEPES 10 mM (1% v/v), L-glutamin 2 mM (1% v/v), and β-mercaptoethanol 20 μM (1% v/v). […] The cytotoxicitiy of diluted LNCs (diameter 50 or 100 nm), non-loaded or loaded with Cyt-C16 2.5% (w/wLabrafac), in cell culture medium, was determined. […] The percentage of cell viability was calculated according to the following equation: […]

[2] = Cyt-C16 concentration in the hydrogels of LNCs by LC-MS/MS; assay type: physicochemical; conditions: LC-MS/MS recovery in hydrogels
Procedure: The Cyt-C16 concentrations in the hydrogels of LNCs were determined using a LC-MS/MS apparatus: Alliance® 295 system (Waters, Saint-Quentin-en-Yvelines, France) with a Zorbax—Eclipse XDB-C18 column 4.6×150 mm, 3.5 μm, (Agilent Technologies, Santa Clara, United States). The temperature was fixed to 25° C. The mobile phase consisted of methanol with formic acid 0.1% (v/v), at a flow rate of 0.8 mL·min^−1. The injection volume was 10 μL. The total HPLC effluent was directed into a Quattro Micro® triple quadrupole mass spectrometer (Waters Saint-Quentin-en-Yvelines, France). Ionization was achieved using turbo ion spray in positive ion mode. The mass spectrometer operated in multiple reactions monitoring (MRM) mode. The […] transitions for Cyt-C16 was 482>112 and 482>350. Cyt-C16 was diluted in methanol at concentration from 1.25 to 200 ng·mL^−1, in presence of non-loaded LNCs, for the calibration curve. A volume of 50 μL of hydrogels was dissolved with deionized water at 1:4000 (v/v), to obtain a complete dispersion of LNCs. Then, a volume of 100 μL was mixed with 900 μL of methanol. Quantification of Cyt-C16 was achieved after filtration of this solution on 0.22-μm filter.

[3] = system: B6-KPC3 cells; test: Cellular toxicity, MTS assay, B6-KPC3 cells; assay type: cell-based, mice; conditions: B6-KPC3 cell line, Cyt-C16 2.5% (w/wLabrafac) at the LNC surface
Procedure: B6-KPC3 cells (pancreas tumor from transgenic KPC mice) (gift from the Department of Oncology and Surgical Sciences of Padova, Pr. Vincenzo Bronte), were grown in suspension at 37° C., 90% humidity, 5% CO2 in DMEM medium, completed with decomplemented FBS (10% v/v), penicillin (100 UI·mL^−1), streptomycin ([…]), amphotericin B ([…]), HEPES 10 mM (1% v/v), L-glutamin 2 mM (1% v/v), and β-mercaptoethanol 20 μM (1% v/v). The cells (3.5·10^3 cells/well in 200-μL medium) were then plated on a 96-well cell culture dish and left to grow for 48 h at 37° C. The cytotoxicitiy of diluted LNCs (diameter 50 or 100 nm), non-loaded or loaded with Cyt-C16 2.5% (w/wLabrafac), in cell culture medium, was determined. Fresh cell culture medium was used as controls. […] The number of living cells was determined using a MTS (3-(4,5-dimethylthiazol-2-yl)-5-(3-carboxymethoxyphenyl)-2-(4-sulfophenyl)-2H-tetrazolium salt) assay (colorimetric assay based on the conversion of a tetrazolium salt into formazan). Formazan absorbance was measured at 492 nm and 750 nm, directly from well plates using a spectrophotometer Multiscan Ascent® MP reader (Thermo Scientific, Courtaboeuf, France), after exposition to MTS (20 μL per well) for 2.5 h at 37° C. The percentage of cell viability was calculated according to the following equation: […]

[4] = phase-inversion process
[5] = solubilized in Labrafac at 70° C., then cooling

degradation of the molecule by the formulation process [2]: does not degrade | oil gelation of Labrafac after cooling [5]: led to the oil gelation after cooling
SMILES: CCCCCCCCCCCCCCCC(=O)Nc1ccn([C@@H]2O[C@H](CO)[C@@H](O)[C@H]2O)c(=O)n1 [Cyt-C16, 4-(N)-palmitoyl cytidine]
additional cytotoxicity in comparison to native LNCs [1]: does not cause additional cytoxicity | additional cytotoxicity in comparison to native LNCs [3]: does not cause additional cytoxicity | effect of adding Cyt-C16 to the LNC formulation process [4]: the LNCs suspension turned into a hydrogel
